Reference: patent US20230066011A1, “PYRROLOPYRIMIDINE DERIVATIVE, AND PHARMACEUTICAL COMPOSITION FOR PREVENTING OR TREATING PROTEIN KINASE-RELATED DISEASE COMPRISING SAME AS ACTIVE INGREDIENT” (VORONOI CO., LTD., priority 2019, published 2023)

Assays:
human GST-CLK1 = target: T1, human GST-CLK1 (Homo sapiens, UniProt P49759); assay: GST-CLK1 enzyme inhibition, ADP-Glo kinase assay; assay type: biochemical; conditions: ATP 10 μM, GST-CLK1 129-end
T1 construct: purified human GST-CLK1 (129-end, SignalChem) enzyme; purchased SignalChem
T1 sequence (P49759 129-484 limits assumed): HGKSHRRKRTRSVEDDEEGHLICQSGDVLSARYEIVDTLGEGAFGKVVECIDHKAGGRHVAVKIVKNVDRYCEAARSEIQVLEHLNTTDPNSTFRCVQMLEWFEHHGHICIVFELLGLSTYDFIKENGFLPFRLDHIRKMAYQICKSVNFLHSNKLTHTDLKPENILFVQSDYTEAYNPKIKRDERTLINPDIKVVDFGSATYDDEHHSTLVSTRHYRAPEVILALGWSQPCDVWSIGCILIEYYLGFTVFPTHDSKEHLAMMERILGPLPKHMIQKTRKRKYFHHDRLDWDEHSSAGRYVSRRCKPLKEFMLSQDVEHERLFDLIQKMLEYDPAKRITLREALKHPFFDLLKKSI
Method: (§1) To evaluate an inhibitory activity of the compound according to the present invention against LRRK2, LRRK2 (G2019S), DYRK1, CLK1, and TTK kinases, experiments were performed as follows.
(§2) Each of the Example compounds was reacted with a purified human GST-CLK1 (129-end, SignalChem) enzyme to evaluate an ability to inhibit an enzyme using a method as described below. A composition of 40 mM Tris-HCl (pH 7.4), 20 mM MgCl2, 0.5 mg/mL BSA, and 50 μM DTT was used as a reaction buffer, and all reactions of test substances were performed in the reaction buffer. In the test, purified ATP (10 μM) and a specific substrate solution were reacted with a human GST-CLK1 (129-end, 3 ng) enzyme at 25° C. for an hour, and the enzyme activities were then determined using an in vitro ADP-Glo™ kinase assay (Promega). An enzyme-activity reaction solution, an ADP-Glo reaction solution, and an enzyme-ability detection solution were reacted at a ratio of 2:2:1 to measure a degree of inhibition of the enzyme activity with luminescence. The degree of inhibition of the enzyme activity according to the treatment concentration of each of the compounds was calculated based on the fluorescence of the enzyme activity of the solvent control which was not treated with the compound. In this case, the concentration of each of the compounds inhibiting 50% of the enzyme activity was determined to be an IC50 (nM) value. The IC50 (nM) value of each of the compounds was determined from 3 sets of data, and calculated using Prism (Version 5.01; GraphPad) software.

human GST-DYRK1A = target: T2, human GST-DYRK1A (Homo sapiens, UniProt Q13627); assay: GST-DYRK1A enzyme inhibition, ADP-Glo kinase assay; assay type: biochemical; conditions: ATP 10 μM, GST-DYRK1A full length, read-out: DYRK1 IC50
T2 construct: purified human GST-DYRK1A (full length, Thermo Scientifics) enzyme; purchased Thermo Scientifics
Method: as §1
as §2, with “GST-DYRK1A (full length, Thermo Scientifics)” for “GST-CLK1 (129-end, SignalChem)”, “GST-DYRK1A (full length, 10” for “GST-CLK1 (129-end, 3”, “value, and the” for “value. The”

| Compound | IC50 (human GST-CLK1) [nM] | IC50 (human GST-DYRK1A) [nM] |
| --- | --- | --- |
| O=C(c1ccc(Nc2nc(NCC3CCC3)c3c(C(F)(F)F)c[nH]c3n2)c2c1OCCO2)N1CCOCC1 [Example 193, (8-((4-((cyclobutylmethyl)amino)-5-(trifluoromethyl)-7H-pyrrolo[2,3-d]pyrimidin-2-yl)amino)-2,3-dihydrobenzo[b][1,4]dioxin-5-yl)(morpholino)methanone] | 301 to 1000 | 301 to 1000 |
| COc1cc(P(C)(C)=O)ccc1Nc1nc(NC2CCCCC2)c2c(C(F)(F)F)c[nH]c2n1 [Example 196, (4-((4-(cyclohexylamino)-5-(trifluoromethyl)-7H-pyrrolo[2,3-d]pyrimidin-2-yl)amino)-3-methoxyphenyl)dimethylphosphine oxide] | 301 to 1000 | 101 to 300 |
| COc1cc(S(C)(=O)=O)ccc1Nc1nc(NCC2CCC2)c2c(C(F)(F)F)c[nH]c2n1 [Example 198, N^4-(cyclobutylmethyl)-N^2-(2-methoxy-4-(methylsulfonyl)phenyl)-5-(trifluoromethyl)-7H-pyrrolo[2,3-d]pyrimidine-2,4-diamine] | 301 to 1000 | 301 to 1000 |
| CC(C)CNc1nc(Nc2ccc(C(=O)N3CCC(N4CCOCC4)CC3)c3c2OCCO3)nc2[nH]cc(C(F)(F)F)c12 [Example 199, (8-((4-(isobutylamino)-5-(trifluoromethyl)-7H-pyrrolo[2,3-d]pyrimidin-2-yl)amino)-2,3-dihydrobenzo[b][1,4]dioxin-5-yl)(4-morpholinopiperidin-1-yl)methanone] | < 100 | 301 to 1000 |
| O=C(c1ccc(Nc2nc(NCC3CC3)c3c(C(F)(F)F)c[nH]c3n2)c2c1OCCO2)N1CCOCC1 [Example 201, (8-((4-((cyclopropylmethyl)amino)-5-(trifluoromethyl)-7H-pyrrolo[2,3-d]pyrimidin-2-yl)amino)-2,3-dihydrobenzo[b][1,4]dioxin-5-yl)(morpholino)methanone] | < 100 | 301 to 1000 |
| O=C(c1ccc(Nc2nc(NC3CCCCC3)c3c(C(F)(F)F)c[nH]c3n2)c2c1OCCO2)N1CCC(N2CCOCC2)CC1 [Example 204, (8-((4-(cyclohexylamino)-5-(trifluoromethyl)-7H-pyrrolo[2,3-d]pyrimidin-2-yl)amino)-2,3-dihydrobenzo[b][1,4]dioxin-5-yl)(4-morpholinopiperidin-1-yl)methanone] | 301 to 1000 | 101 to 300 |
| O=C(c1ccc(Nc2nc(NCC3CCCC3)c3c(C(F)(F)F)c[nH]c3n2)c2c1OCCO2)N1CCOCC1 [Example 205, (8-((4-((cyclopentylmethyl)amino)-5-(trifluoromethyl)-7H-pyrrolo[2,3-d]pyrimidin-2-yl)amino)-2,3-dihydrobenzo[b][1,4]dioxin-5-yl)(morpholino)methanone] | 301 to 1000 | 301 to 1000 |
| COc1cc(S(C)(=O)=O)ccc1Nc1nc(NCC2CCCC2)c2c(C(F)(F)F)c[nH]c2n1 [Example 206, N^4-(cyclopentylmethyl)-N^2-(2-methoxy-4-(methylsulfonyl)phenyl)-5-(trifluoromethyl)-7H-pyrrolo[2,3-d]pyrimidine-2,4-diamine] | 301 to 1000 | 301 to 1000 |
| CCCCNc1nc(Nc2ccc(C(=O)N3CCOCC3)c3c2OCCO3)nc2[nH]cc(C(F)(F)F)c12 [Example 208, (8-((4-(butylamino)-5-(trifluoromethyl)-7H-pyrrolo[2,3-d]pyrimidin-2-yl)amino)-2,3-dihydrobenzo[b][1,4]dioxin-5-yl)(morpholino)methanone] | 301 to 1000 | 301 to 1000 |
| COCCNc1nc(Nc2ccc(S(=O)(=O)N3CCC(N4CCOCC4)CC3)cc2OC)nc2[nH]cc(C(N)=O)c12 [Example 233, 2-((2-methoxy-4-((4-morpholinopiperidin-1-yl)sulfonyl)phenyl)amino)-4-((2-methoxyethyl)amino)-7H-pyrrolo[2,3-d]pyrimdiine-5-carboxamide] | 301 to 1000 | 301 to 1000 |
| COCCNc1nc(Nc2ccc(S(C)(=O)=O)cc2OC)nc2[nH]cc(C(N)=O)c12 [Example 234, 2-((2-methoxy-4-(methylsulfonyl)phenyl)amino)-4-((2-methoxy)amino)-7H-pyrrolo[2,3-d]pyrimidine-5-carboxamide] | 301 to 1000 | 301 to 1000 |
| COc1cc(P2(=O)CCN(C3COC3)CC2)ccc1Nc1nc(NC2CCCC2)c2cc[nH]c2n1 [Example 239, 4-(4-((4-(cyclopentylamino)-7H-pyrrolo[2,3-d]pyrimidin-2-yl)amino)-3-methoxyphenyl)-1-(oxetan-3-yl)-1,4-azaphosphinane 4-oxide] | 301 to 1000 | 301 to 1000 |
| COc1cc(P2(=O)CCN(C3COC3)CC2)ccc1Nc1nc(NC2CCCCC2)c2cc[nH]c2n1 [Example 240, 4-(4-((4-(cyclohexylamino)-7H-pyrrolo[2,3-d]pyrimidin-2-yl)amino)-3-methoxyphenyl)-1-(oxetan-3-yl)-1,4-azaphosphinane 4-oxide] | 301 to 1000 | 301 to 1000 |
| CCNc1nc(Nc2ccc(P(C)(C)=O)cc2OC)nc2[nH]cc(C#N)c12 [Example 252, 2-((4-(dimethylphosphoryl)-2-methoxyphenyl)amino)-4-(ethylamino)-7H-pyrrolo[2,3-d]pyrimidine-5-carbonitrile] | 301 to 1000 | 101 to 300 |
| CNc1nc(Nc2ccc(P(C)(C)=O)cc2OC)nc2[nH]cc(C#N)c12 [Example 253, 2-((4-(dimethylphosphoryl)-2-methoxyphenyl)amino)-4-(methylamino)-7H-pyrrolo[2,3-d]pyrimidine-5-carbonitrile] | 301 to 1000 | 301 to 1000 |
| CCCNc1nc(Nc2ccc(P(C)(C)=O)cc2OC)nc2[nH]cc(C#N)c12 [Example 254, 2-((4-(dimethylphosphoryl)-2-methoxyphenyl)amino)-4-(propylamino)-7H-pyrrolo[2,3-d]pyrimidine-5-carbonitrile] | 101 to 300 | 101 to 300 |
| COc1cc(P(C)(C)=O)ccc1Nc1nc(NCC(C)C)c2c(C#N)c[nH]c2n1 [Example 255, 2-((4-(dimethylphosphoryl)-2-methoxyphenyl)amino)-4-(isobutylamino)-7H-pyrrolo[2,3-d]pyrimidine-5-carbonitrile] | 301 to 1000 | 301 to 1000 |
| CCNc1nc(Nc2ccc(C(=O)N3CCC(N4CCOCC4)CC3)c3c2OCCO3)nc2[nH]cc(C#N)c12 [Example 258, 4-(ethylamino)-2-((8-(4-morpholinopiperidine-1-carbonyl)-2,3-dihydrobenzo[b][1,4]dioxin-5-yl)amino)-7H-pyrrolo[2,3-d]pyrimidine-5-carbonitrile] | < 100 | 301 to 1000 |
| CC[C@@H](C)Nc1nc(Nc2ccc(S(C)(=O)=O)cc2OC)nc2[nH]cc(C#N)c12 [Example 262, (R)-4-(sec-butylamino)-2-((2-methoxy-4-(methylsulfonyl)phenyl)amino)-7H-pyrrolo[2,3-d]pyrimidine-5-carbonitrile] | 301 to 1000 | 301 to 1000 |
| CCNc1nc(Nc2ccc(C(=O)N3CCC(N4CCOCC4)CC3)c3c2OCO3)nc2[nH]cc(C#N)c12 [Example 264, 4-(ethyalmino)-2-((7-(4-morpholino-1-carbonyl)benzo[d][1,3]dioxol-4-yl)amino)-7H-pyrrolo[2,3-d]pyrimidine-5-carbonitrile] | < 100 | 101 to 300 |
